Literature values as cited in US20160303264A1, “LIPOSOMES USEFUL FOR NON-INVASIVE IMAGING AND DRUG DELIVERY” (MERRIMACK PHARMACEUTICALS, INC., priority 2013, published 2016).

Settings: human studies

Compound: CN=C([S-])N/N=C(C)/C(C)=N/NC([S-])=NC.[64Cu+2] [^64Cu-ATSM]
- adverse events or clinically detectable pharmacologic effects: No adverse events or clinically detectable pharmacologic effects
- changes in vital signs or laboratory test results after injection: no clinically significant changes
